Publication PMC11418745 (Molecular cell, 2023)
Where two headings read alike, the source gives them in different places.

Assays:
[1] = target: T1, SIR2-HerA complex (SIR2 NADase site) (Escherichia coli, UniProt A0ABF7PQ24); test: cryo-EM structure, […] Å; type: binding; details: SIR2 active site; 12:6 complex (also 12:5 8SUB and 12:4 8SUW)
[2] = target: T1, SIR2-HerA complex (SIR2 NADase site); test: ε-NAD+ fluorescence NADase assay; type: biochemical; details: 0.5 μM protein, 20 mM Tris pH 8.0, 75 mM KCl, 2 mM MgCl2, 33 °C
EcSIR2 dodecamer = EcSIR2 dodecamer (Escherichia coli, UniProt A0ABF7PQ24); test: cryo-EM structure, […] Å; type: binding; details: active site of SIR2 dodecamer without HerA; not hydrolysed
[3] = target: SIR2-HerA complex (HerA nucleotide site) (Escherichia coli, UniProt A0ABF7PQ25); test: ATPase kit, colorimetric phosphate; type: biochemical; details: 20 mM Tris pH 8.0, 75 mM KCl, 2 mM MgCl2, 37 °C
cryo-EM structure [4] = target: the molecule itself; test: cryo-EM structure
cryo-EM structure [5] = target: the molecule itself; test: cryo-EM structure; remark: listed apart in the source

In the case of `Nc1ncnc2c1ncn2[C@@H]1O[C@H](COP(=O)(O)OP(=O)(O)OC[C@H]2OC(O)[C@H](O)[C@@H]2O)[C@@H](O)[C@H]1O` (stereo partly shown) [ADPR], the “cryo-EM structure, 2.83 Å” value [1] is reported as “an ADPR molecule, the product of NAD^+ hydrolysis, occupied the active site of EcSIR2”.

With `NC(=O)c1ccc[n+]([C@@H]2O[C@H](COP(=O)(O)OP(=O)(O)OC[C@H]3O[C@@H](n4cnc5c4ncn4ccnc54)[C@H](O)[C@@H]3O)[C@@H](O)[C@H]2O)c1` [ε-NAD^+] the “ε-NAD+ fluorescence NADase assay” value [2] was “To test the NADase activities of the SIR2-HerA complex and SIR2 alone, ε-NAD^+ assays”.

For `NC(=O)c1ccc[n+]([C@@H]2O[C@H](COP(=O)(O)OP(=O)(O)OC[C@H]3O[C@@H](n4cnc5c(N)ncnc54)[C@H](O)[C@@H]3O)[C@@H](O)[C@H]2O)c1` [NAD^+], the “cryo-EM structure, 3.6 Å” value (EcSIR2 dodecamer) was “identified an NAD^+ molecule in the active site of EcSIR2”.

In the case of `Nc1ncnc2c1ncn2[C@@H]1O[C@H](COP(=O)(O)OP(=O)(O)OP(=O)(O)O)[C@@H](O)[C@H]1O` [ATP], the “ATPase kit, colorimetric phosphate” value [3] is reported as “the SIR2-HerA complex, not HerA alone, can hydrolyze ATP”.

B1: E. coli HerA (EcHerA) co-expressed with SIR2 as the SIR2-HerA complex (enzyme)
chain: MSLFKLTEISAIGYVVGLEGERIRINLHEGLQGRLASHRKGVSSVTQPGDLIGFDAGNILVVARVTDMAFVEADKAHKANVGTSDLADIPLRQIIAYAIGFVKRELNGYVFISEDWRLPALGSSAVPLTSDFLNIIYSIDKEELPKAVELGVDSRTKTVKIFASVDKLLSRHLAVLGSTGYGKSNFNALLTRKVSEKYPNSRIVIFDINGEYAQAFTGIPNVKHTILGESPNVDSLEKKQQKGELYSEEYYCYKKIPYQALGFAGLIKLLRPSDKTQLPALRNALSAINRTHFKSRNIYLEKDDGETFLLYDDCRDTNQSKLAEWLDLLRRRRLKRTNVWPPFKSLATLVAEFGCVAADRSNGSKRDAFGFSNVLPLVKIIQQLAEDIRFKSIVNLNGGGELADGGTHWDKAMSDEVDYFFGKEKGQENDWNVHIVNMKNLAQDHAPMLLSALLEMFAEILFRRGQERSYPTVLLLEEAHHYLRDPYAEIDSQIKAYERLAKEGRKFKCSLIVSTQRPSELSPTVLAMCSNWFSLRLTNERDLQALRYAMESGNEQILKQISGLPRGDAVAFGSAFNLPVRISINQARPGPKSSDAVFSEEWANCTELRC
For B1, the “stoichiometry N” value (cryo-EM structure [4]) was 6.

B2: E. coli SIR2 (EcSIR2) co-expressed with HerA as the SIR2-HerA complex (enzyme)
chain: MSIYQGGNKLNEDDFRSHVYSLCQLDNVGVLLGAGASVGCGGKTMKDVWKSFKQNYPELLGALIDKYLLVSQIDSDNNLVNVELLIDEATKFLSVAKTRRCEDEEEEFRKILSSLYKEVTKAALLTGEQFREKNQGKKDAFKYHKELISKLISNRQPGQSAPAIFTTNYDLALEWAAEDLGIQLFNGFSGLHTRQFYPQNFDLAFRNVNAKGEARFGHYHAYLYKLHGSLTWYQNDSLTVNEVSASQAYDEYINDIINKDDFYRGQHLIYPGANKYSHTIGFVYGEMFRRFGEFISKPQTALFINGFGFGDYHINRIILGALLNPSFHVVIYYPELKEAITKVSKGGGSEAEKAIVTLKNMAFNQVTVVGGGSKAYFNSFVEHLPYPVLFPRDNIVDELVEAIANLSKGEGNVPF
For B2, the “stoichiometry N” value (cryo-EM structure [4]) was 12.

B3: E. coli SIR2 (EcSIR2), expressed alone (enzyme)
chain: B2 chain
In the case of B3, the “stoichiometry N” value (cryo-EM structure [5]) is reported as 12.
